{
  "source": "patent US20230263891A1",
  "about": "“SONOGENETIC STIMULATION OF CELLS EXPRESSING TRPA1” (Salk Institute for Biological Studies, priority 2020, published 2023)",
  "format_in_all_cases": "cell-based",
  "key": {"hsTRPA1 [1]": {"biological_target": "T1, hsTRPA1 (Homo sapiens, UniProt O75762)", "T1 construct": "HEK cells transfected with either full-length hsTRPA1 or channels containing deletions; porcine teschovirus-1 2A self-cleaving peptide (p2A) linking the channel to dTomato in a bicistronic vector (cleaved yes); host or cells: HEK 293T cells expressing human alpha-v beta-3 integrin and stably expressing GCaMP6f", "T1 sequence (O75762 whole entry)": "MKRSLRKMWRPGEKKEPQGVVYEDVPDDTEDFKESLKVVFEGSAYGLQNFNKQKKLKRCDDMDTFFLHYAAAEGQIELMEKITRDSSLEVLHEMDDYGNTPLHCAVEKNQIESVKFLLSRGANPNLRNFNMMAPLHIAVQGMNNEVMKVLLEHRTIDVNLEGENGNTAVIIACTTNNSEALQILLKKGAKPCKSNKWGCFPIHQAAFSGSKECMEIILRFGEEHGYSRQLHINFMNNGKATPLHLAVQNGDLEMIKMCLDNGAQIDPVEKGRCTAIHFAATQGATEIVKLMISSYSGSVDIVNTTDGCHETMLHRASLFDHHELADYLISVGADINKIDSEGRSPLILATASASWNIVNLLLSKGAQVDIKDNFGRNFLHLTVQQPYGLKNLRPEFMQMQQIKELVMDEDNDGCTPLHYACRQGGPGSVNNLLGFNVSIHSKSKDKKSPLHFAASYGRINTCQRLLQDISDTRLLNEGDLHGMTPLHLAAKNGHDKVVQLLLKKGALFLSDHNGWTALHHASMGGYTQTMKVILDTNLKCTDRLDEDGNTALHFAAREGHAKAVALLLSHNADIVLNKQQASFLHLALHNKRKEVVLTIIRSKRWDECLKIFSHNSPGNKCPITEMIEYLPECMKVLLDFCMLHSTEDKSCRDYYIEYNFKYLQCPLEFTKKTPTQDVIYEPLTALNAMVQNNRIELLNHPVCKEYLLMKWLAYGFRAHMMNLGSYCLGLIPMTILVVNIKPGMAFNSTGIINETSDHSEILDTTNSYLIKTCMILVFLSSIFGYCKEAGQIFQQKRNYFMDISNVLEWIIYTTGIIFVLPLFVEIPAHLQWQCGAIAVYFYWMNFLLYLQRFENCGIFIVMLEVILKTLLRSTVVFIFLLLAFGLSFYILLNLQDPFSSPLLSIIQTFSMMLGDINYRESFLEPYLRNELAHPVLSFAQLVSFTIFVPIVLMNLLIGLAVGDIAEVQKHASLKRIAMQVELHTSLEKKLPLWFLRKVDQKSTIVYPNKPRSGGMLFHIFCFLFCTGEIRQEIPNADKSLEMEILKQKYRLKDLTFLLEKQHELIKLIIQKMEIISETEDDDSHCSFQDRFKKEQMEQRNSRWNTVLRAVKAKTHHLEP", "assay": "Agonist activation of hsTRPA1-expressing HEK cells (GCaMP6f)", "settings": "NMM 100 μM; AITC 33 μM; dTom control cells for comparison"}, "[2]": {"test_system": "Human Embryonic Kidney 293T (HEK) cells", "assay": "Ultrasound-evoked GCaMP6f calcium response of HEK cells transfected with candidate channels (screen and TRPA1 variants)", "settings": "for Response to ultrasound stimulation (cells activated, GCaMP6f): transfected GCaMP6f HEK cells, 6.91 MHz, screen at 100 msecs, 1.5 MPa"}, "[3]": {"test_system": "mouse primary cortical neurons", "assay": "GCaMP6f calcium imaging of primary cortical neurons under ultrasound or AITC"}, "hsTRPA1 [4]": {"biological_target": "T1, hsTRPA1", "assay": "Effect of agents on ultrasound-evoked GCaMP6f response of hsTRPA1-expressing HEK cells"}, "hsTRPA1 [5]": {"biological_target": "T1, hsTRPA1", "assay": "Effect of agents on AITC-triggered GCaMP6f response of hsTRPA1-expressing HEK cells", "settings": "AITC 33 μM; after incubation with agent; versus vehicle"}, "mouse-Piezol": {"biological_target": "mouse-Piezol (Mus musculus, UniProt E2JF22)", "sequence (E2JF22 whole entry)": "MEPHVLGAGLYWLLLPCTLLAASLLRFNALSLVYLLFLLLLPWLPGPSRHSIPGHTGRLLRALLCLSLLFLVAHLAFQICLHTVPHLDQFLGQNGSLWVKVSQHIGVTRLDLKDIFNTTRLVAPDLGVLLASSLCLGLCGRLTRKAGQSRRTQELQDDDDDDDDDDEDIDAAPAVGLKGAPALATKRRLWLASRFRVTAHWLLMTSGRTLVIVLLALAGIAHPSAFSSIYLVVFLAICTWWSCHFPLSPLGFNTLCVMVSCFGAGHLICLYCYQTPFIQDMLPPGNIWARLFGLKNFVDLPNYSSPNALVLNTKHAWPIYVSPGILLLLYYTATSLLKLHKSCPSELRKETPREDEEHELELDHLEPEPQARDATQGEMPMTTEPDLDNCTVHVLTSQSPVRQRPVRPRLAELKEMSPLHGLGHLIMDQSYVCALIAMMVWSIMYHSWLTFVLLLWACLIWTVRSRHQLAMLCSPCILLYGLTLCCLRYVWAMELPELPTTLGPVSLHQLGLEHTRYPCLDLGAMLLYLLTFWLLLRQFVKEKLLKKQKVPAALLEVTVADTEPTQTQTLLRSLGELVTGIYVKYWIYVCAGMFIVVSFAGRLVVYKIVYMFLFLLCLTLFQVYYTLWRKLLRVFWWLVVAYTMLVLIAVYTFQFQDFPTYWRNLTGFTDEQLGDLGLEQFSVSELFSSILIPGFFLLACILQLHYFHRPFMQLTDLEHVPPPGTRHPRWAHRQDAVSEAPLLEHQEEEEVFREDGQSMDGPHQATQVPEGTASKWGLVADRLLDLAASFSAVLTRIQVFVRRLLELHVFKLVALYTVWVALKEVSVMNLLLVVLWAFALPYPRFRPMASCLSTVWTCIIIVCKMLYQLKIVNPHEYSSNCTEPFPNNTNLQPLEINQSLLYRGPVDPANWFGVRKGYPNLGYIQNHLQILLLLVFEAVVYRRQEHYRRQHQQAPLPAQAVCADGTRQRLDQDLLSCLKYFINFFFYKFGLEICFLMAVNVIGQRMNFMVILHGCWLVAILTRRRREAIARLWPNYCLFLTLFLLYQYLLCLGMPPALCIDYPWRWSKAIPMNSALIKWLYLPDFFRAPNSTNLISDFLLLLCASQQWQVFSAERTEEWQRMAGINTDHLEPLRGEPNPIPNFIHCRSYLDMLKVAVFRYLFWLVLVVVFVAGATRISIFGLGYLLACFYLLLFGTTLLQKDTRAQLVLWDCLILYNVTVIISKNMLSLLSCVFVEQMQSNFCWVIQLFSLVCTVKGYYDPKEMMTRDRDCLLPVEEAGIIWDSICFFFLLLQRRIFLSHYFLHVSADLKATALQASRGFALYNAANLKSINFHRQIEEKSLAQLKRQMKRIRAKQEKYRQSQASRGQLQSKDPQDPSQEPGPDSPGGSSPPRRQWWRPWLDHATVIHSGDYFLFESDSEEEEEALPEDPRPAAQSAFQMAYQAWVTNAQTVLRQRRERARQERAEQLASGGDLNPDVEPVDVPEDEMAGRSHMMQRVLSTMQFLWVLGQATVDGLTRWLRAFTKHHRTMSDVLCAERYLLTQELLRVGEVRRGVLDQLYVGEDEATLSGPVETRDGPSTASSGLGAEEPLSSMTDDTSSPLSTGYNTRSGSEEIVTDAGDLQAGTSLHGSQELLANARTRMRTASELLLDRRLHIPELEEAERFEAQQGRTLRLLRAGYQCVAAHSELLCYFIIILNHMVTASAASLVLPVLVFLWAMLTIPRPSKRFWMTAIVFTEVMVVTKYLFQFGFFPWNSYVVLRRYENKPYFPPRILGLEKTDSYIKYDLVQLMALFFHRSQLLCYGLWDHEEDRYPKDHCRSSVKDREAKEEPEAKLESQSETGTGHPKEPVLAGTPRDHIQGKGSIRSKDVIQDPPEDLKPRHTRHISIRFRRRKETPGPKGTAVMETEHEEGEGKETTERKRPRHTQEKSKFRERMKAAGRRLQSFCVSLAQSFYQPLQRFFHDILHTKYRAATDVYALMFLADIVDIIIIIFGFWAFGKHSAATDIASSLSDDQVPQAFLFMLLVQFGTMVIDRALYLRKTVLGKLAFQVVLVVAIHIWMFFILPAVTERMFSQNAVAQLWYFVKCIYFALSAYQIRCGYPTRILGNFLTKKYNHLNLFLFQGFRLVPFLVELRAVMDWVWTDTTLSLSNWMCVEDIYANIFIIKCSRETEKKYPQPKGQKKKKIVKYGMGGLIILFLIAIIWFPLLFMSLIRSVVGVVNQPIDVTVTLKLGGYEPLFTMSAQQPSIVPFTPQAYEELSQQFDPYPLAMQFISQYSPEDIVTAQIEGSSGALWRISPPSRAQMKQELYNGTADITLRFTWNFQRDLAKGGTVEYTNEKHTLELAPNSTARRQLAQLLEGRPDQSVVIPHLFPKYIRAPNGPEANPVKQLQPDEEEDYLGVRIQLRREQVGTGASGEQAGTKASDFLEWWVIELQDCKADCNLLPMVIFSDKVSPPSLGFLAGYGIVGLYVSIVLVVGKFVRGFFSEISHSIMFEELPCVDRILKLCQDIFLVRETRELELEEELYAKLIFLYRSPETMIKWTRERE", "settings": "yoda-1 10 μM"}, "hsTRPA1 [6]": {"biological_target": "T1, hsTRPA1"}, "[7]": {"test_system": "Human Embryonic Kidney 293T (HEK) cells", "assay": "AITC (chemical agonist) GCaMP6f response of HEK cells transfected with hsTRPA1 variants", "settings": "AITC 33 μM"}, "[8]": {"settings": "A784168 2 μM, BAPTA 30 μM, versus vehicle"}, "[9]": {"settings": "agent added 45 minutes before, HC-030031 40 μM, MCD 5 mM, nocodazole 5 μM, latrunculin A 1 μM, paclitaxel 600 nM, versus vehicle"}, "[10]": {"settings": "control neurons without hsTRPA1"}},
  "note": "Where two headings read alike, the source gives them in different places. Where no end group is shown, it is not given here.",
  "data": [
    {"molecule": "CN1C(=O)C=CC1=O", "note": "[NMM, N-methylmaleimide]", "values": [
      {"measurement": "Activation of TRPA1-expressing HEK cells by agonist (GCaMP6f)", "setting": "hsTRPA1 [1]", "value": "specifically activated TRPA1-expressing HEK cells"}
    ]},
    {"molecule": "mouse-Piezol: mouse Piezo1 channel expressed in HEK cells", "values": [
      {"measurement": "Response to ultrasound stimulation (cells activated, GCaMP6f)", "setting": "[2]", "value": "not"}
    ]},
    {"molecule": "O=C(O)CN(CC(=O)O)c1ccccc1OCCOc1ccccc1N(CC(=O)O)CC(=O)O", "note": "[BAPTA]", "values": [
      {"measurement": "Effect on ultrasound responses of hsTRPA1-expressing neurons (GCaMP6f)", "setting": "[3]; [8]", "value": "blocked neuronal responses to ultrasound"}
    ]},
    {"molecule": "C/C1=C/C(=O)O[C@@H]2C[C@@H](CC[C@H](C)/C=C\\C=C\\CC1)O[C@@](O)([C@@H]1CSC(=O)N1)C2", "note": "[latrunculin A]", "values": [
      {"measurement": "Effect on ultrasound responses of hsTRPA1-expressing HEK cells (GCaMP6f peak amplitude)", "setting": "hsTRPA1 [4]; [9]", "value": "reduced the ultrasound responses"},
      {"measurement": "Effect on AITC-triggered responses of hsTRPA1-expressing HEK cells", "setting": "hsTRPA1 [5]", "value": "significantly reduced"}
    ]},
    {"molecule": "NC1=N[C@H](O)[C@H]2[C@H]3O[C@]4(O)O[C@@H]([C@@H](O)[C@@]2(N1)[C@@H]4O)[C@]3(O)CO", "note": "[tetrodotoxin]", "values": [
      {"measurement": "Effect on ultrasound responses of hsTRPA1-expressing neurons (GCaMP6f)", "setting": "[3]", "value": "partially blocked"},
      {"measurement": "Effect on ultrasound-evoked activity of control (Cre) neurons", "setting": "[3]", "value": "completely abolishing responses"}
    ]},
    {"molecule": "GsMTx-4-4: GsMTx-4, applied to Piezo1- and TRPV1-expressing HEK cells (GCLEFWWKCNPNDDKCCRPKLKCSKLFKLCNFSF; ends and bridges not checked; cysteine pairing not given here; UniProt Q7YT39 47-80, looked up)", "values": [
      {"measurement": "Response of HEK cells expressing mouse Piezo1 to compound", "setting": "mouse-Piezol", "value": "not"}
    ]},
    {"molecule": "C/C1=C\\[C@H](C)C[C@H](C)OC(=O)C[C@H](c2ccc(O)cc2)NC(=O)[C@@H](Cc2c(Br)[nH]c3ccccc23)N(C)C(=O)[C@H](C)NC(=O)[C@@H](C)C1", "note": "[jasplakinolide]", "values": [
      {"measurement": "Effect on AITC-triggered responses of hsTRPA1-expressing HEK cells", "setting": "hsTRPA1 [5]", "value": "significantly reduced"}
    ]},
    {"molecule": "Clc1cccc(Cl)c1CSc1nnc(-c2cnccn2)s1", "note": "[yoda-1]", "values": [
      {"measurement": "Response of HEK cells expressing mouse Piezo1 to compound", "setting": "mouse-Piezol", "value": "respond"}
    ]},
    {"molecule": "C=CCN=C=S", "note": "[AITC, allyl isothiocyanate]", "values": [
      {"measurement": "Response of Cre-only control neurons to agonist", "setting": "[3]; [10]", "value": "did not respond"},
      {"measurement": "Activation of TRPA1-expressing HEK cells by agonist (GCaMP6f)", "setting": "hsTRPA1 [1]", "value": "specifically activated TRPA1-expressing HEK cells"}
    ]},
    {"molecule": "C=C1[C@@H](C)[C@H]2[C@H](Cc3ccccc3)NC(=O)[C@]23[C@H](OC(C)=O)/C=C/[C@@](C)(O)C(=O)[C@@H](C)C/C=C/[C@H]3[C@@H]1O", "note": "[cytochalasin D]", "values": [
      {"measurement": "Effect on ultrasound responses of hsTRPA1-expressing HEK cells (GCaMP6f peak amplitude)", "setting": "hsTRPA1 [4]; [9]", "value": "reduced the ultrasound responses"},
      {"measurement": "Effect on AITC-triggered responses of hsTRPA1-expressing HEK cells", "setting": "hsTRPA1 [5]", "value": "not to be altered"}
    ]},
    {"molecule": "CC(=O)O[C@H]1C(=O)[C@@]2(C)[C@H]([C@H](OC(=O)c3ccccc3)[C@]3(O)C[C@H](OC(=O)[C@H](O)[C@@H](NC(=O)c4ccccc4)c4ccccc4)C(C)=C1C3(C)C)[C@]1(OC(C)=O)CO[C@@H]1C[C@@H]2O", "note": "[Taxol, paclitaxel]", "values": [
      {"measurement": "Effect on ultrasound responses of hsTRPA1-expressing HEK cells (GCaMP6f peak amplitude)", "setting": "hsTRPA1 [4]; [9]", "value": "no significant effect"},
      {"measurement": "Effect on AITC-triggered responses of hsTRPA1-expressing HEK cells", "setting": "hsTRPA1 [5]", "value": "significantly reduced"}
    ]},
    {"molecule": "mouse homolog: mouse TRPA1 (Mus musculus; RefSeq NM_177781)", "values": [
      {"measurement": "Response to ultrasound stimulation (cells activated, GCaMP6f)", "setting": "[2]", "value": "only a third as responsive as hsTRPA1"}
    ]},
    {"molecule": "COC(=O)Nc1nc2ccc(C(=O)c3cccs3)cc2[nH]1", "note": "[nocodazole]", "values": [
      {"measurement": "Effect on ultrasound responses of hsTRPA1-expressing HEK cells (GCaMP6f peak amplitude)", "setting": "hsTRPA1 [4]; [9]", "value": "no significant effect"},
      {"measurement": "Effect on AITC-triggered responses of hsTRPA1-expressing HEK cells", "setting": "hsTRPA1 [5]", "value": "not to be altered"}
    ]},
    {"molecule": "CC(C)c1ccc(NC(=O)Cn2cnc3c2c(=O)n(C)c(=O)n3C)cc1", "note": "[HC-030331]", "values": [
      {"measurement": "Effect on ultrasound responses of hsTRPA1-expressing HEK cells (GCaMP6f peak amplitude)", "setting": "hsTRPA1 [4]", "value": "inhibited"},
      {"measurement": "Effect on ultrasound responses of hsTRPA1-expressing neurons (GCaMP6f)", "setting": "[3]; [8]", "value": "significantly attenuated"},
      {"measurement": "Effect on ultrasound-evoked activity of control (Cre) neurons", "setting": "[3]; [10]", "value": "without affecting"},
      {"measurement": "Effect on ultrasound-triggered membrane events (mean peak amplitude)", "setting": "hsTRPA1 [6]", "value": "attenuated"}
    ]},
    {"molecule": "methyl-beta-cyclodextrin [MCD]", "values": [
      {"measurement": "Effect on ultrasound responses of hsTRPA1-expressing HEK cells (GCaMP6f peak amplitude)", "setting": "hsTRPA1 [4]; [9]", "value": "attenuated hsTRPA1 responses to ultrasound"},
      {"measurement": "Effect on AITC-triggered responses of hsTRPA1-expressing HEK cells", "setting": "hsTRPA1 [5]", "value": "did not affect the response to AITC"}
    ]},
    {"molecule": "human-TRPV1: human TRPV1 channel expressed in HEK cells (protein, UniProt Q8NER1 1-839, looked up) Transient receptor potential …: MKKWSSTDLGAAADPLQKDTCPDPLDGDPNSRPPPAKPQLSTAKSRTRLFGKGDSEEAFPVDCPHEEGELDSCPTITVSPVITIQRPGDGPTGARLLSQDSVAASTEKTLRLYDRRSIFEAVAQNNCQDLESLLLFLQKSKKHLTDNEFKDPETGKTCLLKAMLNLHDGQNTTIPLLLEIARQTDSLKELVNASYTDSYYKGQTALHIAIERRNMALVTLLVENGADVQAAAHGDFFKKTKGRPGFYFGELPLSLAACTNQLGIVKFLLQNSWQTADISARDSVGNTVLHALVEVADNTADNTKFVTSMYNEILMLGAKLHPTLKLEELTNKKGMTPLALAAGTGKIGVLAYILQREIQEPECRHLSRKFTEWAYGPVHSSLYDLSCIDTCEKNSVLEVIAYSSSETPNRHDMLLVEPLNRLLQDKWDRFVKRIFYFNFLVYCLYMIIFTMAAYYRPVDGLPPFKMEKTGDYFRVTGEILSVLGGVYFFFRGIQYFLQRRPSMKTLFVDSYSEMLFFLQSLFMLATVVLYFSHLKEYVASMVFSLALGWTNMLYYTRGFQQMGIYAVMIEKMILRDLCRFMFVYIVFLFGFSTAVVTLIEDGKNDSLPSESTSHRWRGPACRPPDSSYNSLYSTCLELFKFTIGMGDLEFTENYDFKAVFIILLLAYVILTYILLLNMLIALMGETVNKIAQESKNIWKLQRAITILDTEKSFLKCMRKAFRSGKLLQVGYTPDGKDDYRWCFRVDEVNWTTWNTNVGIINEDPGNCEGVKRTLSFSLRSSRVSGRHWKNFALVPLLREASARDRQSAQPEEVYLRQFSGSLKPEDAEVFKSPAASGEK", "values": [
      {"measurement": "Response to ultrasound stimulation (cells activated, GCaMP6f)", "setting": "[2]", "value": "not"}
    ]},
    {"molecule": "Y785S: hsTRPA1 mutant with TM2 CRAC domain disrupted, Tyr785 replaced with Ser (protein, UniProt O75762 1-1119, looked up, variant Y785S) Transient receptor potential …: MKRSLRKMWRPGEKKEPQGVVYEDVPDDTEDFKESLKVVFEGSAYGLQNFNKQKKLKRCDDMDTFFLHYAAAEGQIELMEKITRDSSLEVLHEMDDYGNTPLHCAVEKNQIESVKFLLSRGANPNLRNFNMMAPLHIAVQGMNNEVMKVLLEHRTIDVNLEGENGNTAVIIACTTNNSEALQILLKKGAKPCKSNKWGCFPIHQAAFSGSKECMEIILRFGEEHGYSRQLHINFMNNGKATPLHLAVQNGDLEMIKMCLDNGAQIDPVEKGRCTAIHFAATQGATEIVKLMISSYSGSVDIVNTTDGCHETMLHRASLFDHHELADYLISVGADINKIDSEGRSPLILATASASWNIVNLLLSKGAQVDIKDNFGRNFLHLTVQQPYGLKNLRPEFMQMQQIKELVMDEDNDGCTPLHYACRQGGPGSVNNLLGFNVSIHSKSKDKKSPLHFAASYGRINTCQRLLQDISDTRLLNEGDLHGMTPLHLAAKNGHDKVVQLLLKKGALFLSDHNGWTALHHASMGGYTQTMKVILDTNLKCTDRLDEDGNTALHFAAREGHAKAVALLLSHNADIVLNKQQASFLHLALHNKRKEVVLTIIRSKRWDECLKIFSHNSPGNKCPITEMIEYLPECMKVLLDFCMLHSTEDKSCRDYYIEYNFKYLQCPLEFTKKTPTQDVIYEPLTALNAMVQNNRIELLNHPVCKEYLLMKWLAYGFRAHMMNLGSYCLGLIPMTILVVNIKPGMAFNSTGIINETSDHSEILDTTNSYLIKTCMILVFLSSIFGSCKEAGQIFQQKRNYFMDISNVLEWIIYTTGIIFVLPLFVEIPAHLQWQCGAIAVYFYWMNFLLYLQRFENCGIFIVMLEVILKTLLRSTVVFIFLLLAFGLSFYILLNLQDPFSSPLLSIIQTFSMMLGDINYRESFLEPYLRNELAHPVLSFAQLVSFTIFVPIVLMNLLIGLAVGDIAEVQKHASLKRIAMQVELHTSLEKKLPLWFLRKVDQKSTIVYPNKPRSGGMLFHIFCFLFCTGEIRQEIPNADKSLEMEILKQKYRLKDLTFLLEKQHELIKLIIQKMEIISETEDDDSHCSFQDRFKKEQMEQRNSRWNTVLRAVKAKTHHLEP", "values": [
      {"measurement": "GCaMP6f peak amplitude upon ultrasound stimulation, variant versus full-length hsTRPA1", "setting": "[2]; transfected HEK cells", "value": "complete loss of ultrasound sensitivity"},
      {"measurement": "GCaMP6f peak amplitude upon treatment with AITC, variant versus full-length hsTRPA1", "setting": "[7]", "value": "without affecting responsiveness to AITC"}
    ]}
  ]
}
